# From patent US20100303904A1, “TABLET WITH REMEDIAL COMPOSITION AND METHODS FOR TREATING MEDICAL DISORDERS AND AILMENTS” (BIO-PRO MEDICAL LTD., priority 2007, published 2010)
# What was measured:
# [1] = TNBS-induced IBD model in rats (Example 3); assay type: in vivo, Wistar rats; conditions: TNBS-induced model (FIG. 6); compared to negative and positive controls
# Protocol: One day before the experiment the rats were weighted, marked according to the groups, and fasted for 24 hours (for colon emptying). At the day of the experiment the rats were anesthetized by an intra-peritoneal injection of halothene and colitis was induced by intra-rectal administration of 0.4 ml of a 25 mg/ml TNBS solution dissolved in 50% ethanol using an 8-cm long rubber catheter. Then, 0.4 ml of air was injected and the rats were kept in a Trendelenburg position for 30 sec to ensure that all TNBS solution left the catheter. Three rats received intra-rectal administration of saline and served as the negative control group. Coltect, 5-ASA, or their combination, were delivered by daily gavage of 0.5 ml solution starting from day 0. All rats were sacrificed after 7 days. Their 10-cm distal colon was removed, opened longitudinally along the anti-mesenteric side and was gently washed with ice-cold saline in order to remove all luminal content. Colon wet weight was weighed and the colonic injury was immediately examined under a stereomicroscope and the visible damage was scored, then part of the colons was placed in 10% formalin for histological evaluation and parts were frozen at […] for later evaluation. The induction and severity of colitis were evaluated by measuring: • 1. Daily body weight. • 2. Colon weight. • 3. Macro-Histological score damage.
# [2] = tested on: Aberrant Crypt Foci (ACF); experiment: DMH-induced CRC model of aberrant crypt foci (ACF) in rats (Example 1); assay type: in vivo, Wistar rats; conditions: DMH 30 mg/kg rats; oral gavage; colons stained 60 days after DMH; Coltect 150 mg/kg, 5-ASA 50 mg/kg
# Protocol: Age- and sex-matched 23 Wistar rats were purchased from the animal facilities at the Tel-Aviv Sourasky Medical Center (TASMC). The rats were injected subcutaneously twice a week for two weeks with 0.3 ml of 30 mg/kg body weight DMH (Sigma-Aldrich, Israel) dissolved in PBS, and groups (n=5) were randomly divided as follows (Table 1): The Coltect mixture was dissolved in a solution of DMSO (50%) and tap water. The solution was administered to the rats by oral gavage for five days, starting at the first day of DMH injections. During the experiment, the rats were weighed twice a week. Sixty days after DMH injections the rats were sacrificed by CO2 flow. The colons were removed and flushed with isotonic saline solution, opened longitudinally, cut into three parts of equal length, and labeled as proximal, middle and distal segments. The colons were laid open on a Wattman paper and fixed flat in 4% buffered formalin solution. The ACF were visualized and counted by using methylene blue staining (0.2% solution) and photographed. […] The number and multiplicity of ACF for each colonic segment were evaluated and recorded. The number and multiplicity of ACF were recorded separately for each segment. To determine multiplicity of ACF, the number of crypts in each focus was defined and recorded.
# [3] = DSS-induced IBD model in mice (Example 2); assay type: in vivo, C57BL mice; conditions: first experiment (FIG. 4A); DSS 2.5%; Coltect 150 mg/kg, 5-ASA 50 mg/kg oral gavage 7 days
# Protocol: Age- and sex-matched C57BL 5-weeks old female mice were obtained from Harlan Laboratories, Israel. […] Four mice received saline (2.5%) and served as the negative control group. The mice were randomly divided into groups (n=8) and received the corresponding treatment starting from the first day for 7 days (Table 3). The treatments were given in doses of 0.5 ml of tap water with 2% DMSO by oral gavage. The following doses were used: Coltect-150 mg/kg body weight; 5-ASA-50 mg/kg body weight. All mice were sacrificed 7 days after the enema, their spleen and colon were removed, fixed in 10% formalin for histological evaluation and parts were frozen at […] for later examination. For macroscopic injury evaluation a revised colonic damage scoring system was used as described by Morris et al. Thus, the severity of colitis was determined based on the following parameters: • 1. Disease Activity Index (DAI): weight loss, gross bleeding, stool consistency (Table 2)—were daily recorded. • 2. Spleen weight. • 3. Colon length. • 4. Histological score. For histological injury evaluation tissues fixed in 10% formalin, were embedded in paraffin wax and cut. 4 μm sections were histologically stained and evaluated by light microscopy for ulceration and inflammation. [table]
# [4] = tested on: Aberrant Crypt Foci (ACF); experiment: DMH-induced ACF formation, Coltect versus its ingredients (Example 5a); assay type: in vivo, Wistar rats; conditions: DMH 50 mg/kg rats; daily oral gavage 2 weeks; sacrificed after 2 months (FIG. 10A)
# Protocol: In these experiments the concentration of the ingredients used was determined based on their ratio in the Coltect mixture. As used in the above experiments, the Coltect concentration administered to the model animals was 150 mg/kg. Since a ratio of ⅔ Curcumin to ⅓ Green Tea was used in the Coltect mixture, the administered Curcumin concentration was 100 mg/kg and the Green tea concentration was 50 mg/kg. The Curcumin to Selenium ratio in the Coltect mixture was 500 mg Curcumin to 0.1 mg Selenium, therefore, the administered Selenium concentration was 0.02 mg/kg body weight. The final administered concentrations of the Coltect components are presented in Table 6 below: Forty seven age- and sex-matched Wistar rats were obtained from the animal facility at TASMC. The rats were injected subcutaneously twice a week for two weeks with 0.3 ml of 50 mg/kg body weight DMH (Sigma-Aldrich, Israel) dissolved in PBS, and groups were randomly divided as shown in Table 7. The Coltect compound and its components were daily administered simultaneously for 2 weeks by oral gavage. The rats were sacrificed after 2 months. Reference is now made to FIG. 9 presenting Methylene blue ACF staining performed according to the protocol described in the above Example 1, of normal mucosa (A) aberrant crypt foci containing small ACF with 1-3 crypts (B) and large ACF with more than three crypts (C).
# [5] = DSS-induced colitis in mice, Coltect versus its components (Example 5b); assay type: in vivo, C57BL mice
# Protocol: In these experiments the concentration of the ingredients used was determined based on their ratio in the Coltect mixture. As used in the above experiments, the Coltect concentration administered to the model animals was 150 mg/kg. Since a ratio of ⅔ Curcumin to ⅓ Green Tea was used in the Coltect mixture, the administered Curcumin concentration was 100 mg/kg and the Green tea concentration was 50 mg/kg. The Curcumin to Selenium ratio in the Coltect mixture was 500 mg Curcumin to 0.1 mg Selenium, therefore, the administered Selenium concentration was 0.02 mg/kg body weight.
# Age- and sex-matched C57BL 5-weeks old female mice were obtained from Harlan Laboratories, Israel. After one week of acclimation, the mice (n=52) were treated with 2.5% DSS administered in the drinking water for 5 days ad libitum, followed by two days of tap water. The treatments were given in doses of 0.3 ml of tap water with 2% DMSO by oral gavage. The mice were randomly divided into 8 sub-groups (n=6) and a control group (n=4) treated as described in Table 8.
SMILES,Changes in body weight [1],Number of crypts in treated colons: 1-3 crypts [2],Number of crypts in treated colons: >4 crypts [2],DAI score [3],Reduction in number of ACFs relative to the positive control [4],"DAI score ([5]; DSS 2.5% mice (FIG. 11), oral gavage)","Colon length, in words ([5]; DSS-induced mice, day seven (FIG. 12))"
"Nc1ccc(O)c(C(=O)O)c1 [5-ASA, 5-aminosalicylic acid]",no substantial changes in body weight,28 ± 4.1,11.6 ± 3.9,relatively higher DAI scores,–,–,–
"C[Se]CC[C@H](N)C(=O)O [Selenium, Selenomethionine]",–,–,–,–,about 30%,2.33±1.33,longer colons
